# In US20110230476A1, “PI3 KINASE INHIBITORS AND USES THEREOF” (AVILA THERAPEUTICS, INC., priority 2009, published 2011):
# Molecular target: T1, PI3Kα (p110α/p85α) (Homo sapiens, UniProt P42336)
# T1 construct: purchased BPS Bioscience (San Diego, Calif.) or Millipore (Billerica, Mass.)
# Assay: HTRF assay, potency against active PI3Kα
# Assay type: biochemical
# Conditions: HTRF; [ATP]=50 μM, [di-C8-PIP2]=10 μM; 30 min pre-incubation; read-out: PI3Kα Inhibition
# Outline: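 Active p110/p85α lipid kinase reactions were started with ATP and run 30-60 minutes at 25 °C, then stopped and developed with HTRF detection mix. HTRF ratio converted to % inhibition against ±enzyme controls; IC50 from log[inhibitor] vs response, variable slope.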
# T1 sequence (P42336 whole entry): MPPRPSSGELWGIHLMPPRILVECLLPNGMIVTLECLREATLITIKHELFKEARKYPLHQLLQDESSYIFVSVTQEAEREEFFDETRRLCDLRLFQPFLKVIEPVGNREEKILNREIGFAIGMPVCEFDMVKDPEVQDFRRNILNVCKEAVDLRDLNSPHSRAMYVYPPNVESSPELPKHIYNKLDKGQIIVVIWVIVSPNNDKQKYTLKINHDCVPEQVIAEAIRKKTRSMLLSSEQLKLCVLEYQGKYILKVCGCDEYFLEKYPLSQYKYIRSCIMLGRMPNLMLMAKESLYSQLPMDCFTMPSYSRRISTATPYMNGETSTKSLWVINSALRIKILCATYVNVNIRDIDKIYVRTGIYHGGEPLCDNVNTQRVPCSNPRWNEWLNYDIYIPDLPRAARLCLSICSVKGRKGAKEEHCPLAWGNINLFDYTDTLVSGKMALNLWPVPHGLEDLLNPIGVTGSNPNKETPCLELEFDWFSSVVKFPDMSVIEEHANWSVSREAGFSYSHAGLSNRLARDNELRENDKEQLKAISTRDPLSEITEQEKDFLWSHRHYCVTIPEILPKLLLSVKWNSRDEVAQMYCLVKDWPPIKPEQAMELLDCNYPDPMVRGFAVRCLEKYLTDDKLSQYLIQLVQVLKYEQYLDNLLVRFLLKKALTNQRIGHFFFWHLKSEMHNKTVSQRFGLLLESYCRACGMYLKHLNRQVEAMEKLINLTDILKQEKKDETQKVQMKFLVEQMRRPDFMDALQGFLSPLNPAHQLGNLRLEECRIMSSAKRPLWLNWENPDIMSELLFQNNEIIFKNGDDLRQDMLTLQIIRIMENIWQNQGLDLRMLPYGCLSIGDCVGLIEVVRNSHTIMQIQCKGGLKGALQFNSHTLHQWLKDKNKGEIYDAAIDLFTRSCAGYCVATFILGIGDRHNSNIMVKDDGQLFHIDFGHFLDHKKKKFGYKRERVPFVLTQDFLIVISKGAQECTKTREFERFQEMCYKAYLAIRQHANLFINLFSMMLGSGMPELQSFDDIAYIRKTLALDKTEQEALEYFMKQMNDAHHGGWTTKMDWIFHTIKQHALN
# T1 sequence (P27986 whole entry partner): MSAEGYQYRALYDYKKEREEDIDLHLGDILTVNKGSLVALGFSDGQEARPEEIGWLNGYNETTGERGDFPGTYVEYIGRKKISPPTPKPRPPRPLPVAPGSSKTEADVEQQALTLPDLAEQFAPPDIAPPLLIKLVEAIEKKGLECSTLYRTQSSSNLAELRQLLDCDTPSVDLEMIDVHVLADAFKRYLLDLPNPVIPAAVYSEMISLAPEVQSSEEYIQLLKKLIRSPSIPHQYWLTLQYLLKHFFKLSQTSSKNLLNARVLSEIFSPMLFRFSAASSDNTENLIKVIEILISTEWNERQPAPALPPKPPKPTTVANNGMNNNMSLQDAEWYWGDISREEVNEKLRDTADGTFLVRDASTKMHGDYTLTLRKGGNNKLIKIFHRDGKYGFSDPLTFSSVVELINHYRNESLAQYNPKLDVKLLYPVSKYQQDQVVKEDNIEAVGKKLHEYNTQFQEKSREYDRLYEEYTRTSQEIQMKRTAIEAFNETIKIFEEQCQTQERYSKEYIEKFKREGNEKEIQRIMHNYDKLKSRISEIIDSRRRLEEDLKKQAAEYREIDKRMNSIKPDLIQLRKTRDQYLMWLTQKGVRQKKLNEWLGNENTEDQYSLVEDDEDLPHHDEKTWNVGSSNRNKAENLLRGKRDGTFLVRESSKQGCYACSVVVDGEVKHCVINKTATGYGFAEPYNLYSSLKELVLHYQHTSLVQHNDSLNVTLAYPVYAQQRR
row,SMILES,IC50
1,"O=C(CCl)N1CCN(Cc2cc3nc(-c4cccc5[nH]ncc45)nc(N4CCOCC4)c3s2)CC1 [II-a-145, 1-(4-((2-(1H-indazol-4-yl)-4-morpholinothieno[3,2-d]pyrimidin-6-yl)methyl)piperazin-1-yl)-2-chloroethanone]",100 to 1000 nM
2,"CCC(=O)NC1CCN(c2ccc(-c3cc4nc(-c5cccc(O)c5)nc(N5CCOCC5)c4s3)cc2)CC1 [II^R-a-81, N-(1-(4-(2-(3-hydroxyphenyl)-4-morpholinothieno[3,2-d]pyrimidin-6-yl)phenyl)piperidin-4-yl)propionamide]",100 to 1000 nM
3,"C/C=C/C(=O)CCC(=O)N1CCc2cc(-c3cc4nc(-c5cccc(O)c5)nc(N5CCOCC5)c4s3)ccc2C1 [II-a-108, (E)-1-(6-(2-(3-hydroxyphenyl)-4-morpholinothieno[3,2-d]pyrimidin-6-yl)-3,4-dihydroisoquinolin-2(1H)-yl)hept-5-ene-1,4-dione]",< 10 nM
4,"CN(C)C/C=C/C(=O)NC1CCN(c2ccc(-c3cc4nc(-c5cccc(O)c5)nc(N5CCOCC5)c4s3)cc2)CC1 [II-a-150, (E)-4-(dimethylamino)-N-(1-(4-(2-(3-hydroxyphenyl)-4-morpholinothieno[3,2-d]pyrimidin-6-yl)phenyl)piperidin-4-yl)but-2-enamide]",10 to 100 nM
5,"C=CC(=O)NOCC(=O)N1CCN(Cc2cc3nc(-c4cccc5[nH]ncc45)nc(N4CCOCC4)c3s2)CC1 [II-a-147, N-(2-(4-((2-(1H-indazol-4-yl)-4-morpholinothieno[3,2-d]pyrimidin-6-yl)methyl)piperazin-1-yl)-2-oxoethoxy)acrylamide]",100 to 1000 nM
6,"CC(C)=CC(=O)CCCC(=O)N1CC=C(c2cc3nc(-c4cnc(N)nc4)cc(C4=CCOCC4)c3s2)CC1 [II-g-4, 1-(4-(5-(2-aminopyrimidin-5-yl)-7-(3,6-dihydro-2H-pyran-4-yl)thieno[3,2-b]pyridin-2-yl)-5,6-dihydropyridin-1(2H)-yl)-7-methyloct-6-ene-1,5-dione]",> 1000 nM
7,"C=CC(=O)N1CCC(N2CCN(C(=O)c3cc4nc(-c5cccc(O)c5)nc(N5CCOCC5)c4s3)CC2)CC1 [II-a-120, 1-(4-(4-(2-(3-hydroxyphenyl)-4-morpholinothieno[3,2-d]pyrimidine-6-carbonyl)piperazin-1-yl)piperidin-1-yl)prop-2-en-1-one]",100 to 1000 nM
8,"CCCC(=O)CCC(=O)N1CCC(n2nc(-c3ccc(OC)c(OC)c3)c3c(N)ncnc32)CC1 [XI^R-1, 1-(4-(4-amino-3-(3,4-dimethoxyphenyl)-1H-pyrazolo[3,4-d]pyrimidin-1-yl)piperidin-1-yl)heptane-1,4-dione]",> 1000 nM
9,"C=CC(=O)NCC(=O)N1CCCc2cccc(-c3cc4nc(-c5cccc(O)c5)nc(N5CCOCC5)c4s3)c21 [II-a-124, N-(2-(8-(2-(3-hydroxyphenyl)-4-morpholinothieno[3,2-d]pyrimidin-6-yl)-3,4-dihydroquinolin-1(2H)-yl)-2-oxoethyl)acrylamide]",100 to 1000 nM
10,"C=CC(=O)NCC(=O)NCc1ccc(-c2cc3nc(-c4cccc5[nH]ncc45)nc(N4CCOCC4)c3s2)cc1 [II-a-128, N-(2-(4-(2-(1H-indazol-4-yl)-4-morpholinothieno[3,2-d]pyrimidin-6-yl)benzylamino)-2-oxoethyl)acrylamide]",100 to 1000 nM
11,"O=C(C=C1COC1)CCC(=O)N1CCN(Cc2cc3nc(-c4cccc5[nH]ncc45)nc(N4CCOCC4)c3s2)CC1 [II-a-113, 1-(4-((2-(1H-indazol-4-yl)-4-morpholinothieno[3,2-d]pyrimidin-6-yl)methyl)piperazin-1-yl)-5-(oxetan-3-ylidene)pentane-1,4-dione]",> 1000 nM
12,"C=CC(=O)NCc1ccc(OC)c(-n2c(CSc3ncnc4[nH]cnc34)nc3cccc(Cl)c3c2=O)c1 [I-5, N-(3-(2-((9H-purin-6-ylthio)methyl)-5-chloro-4-oxoquinazolin-3(4H)-yl)-4-methoxybenzyl)acrylamide]",> 1000 nM
13,"C/C=C/C(=O)CCC(=O)NCc1ccc(-c2cc3nc(-c4cccc(O)c4)nc(N4CCOCC4)c3s2)cc1 [II-a-80, (E)-N-(4-(2-(3-hydroxyphenyl)-4-morpholinothieno[3,2-d]pyrimidin-6-yl)benzyl)-4-oxohept-5-enamide]",< 10 nM
14,"C/C=C/C(=O)CCCC(=O)N1CCN(c2ccc(-c3ccnc4ccc(/C=C5\SC(=O)NC5=O)cc34)cc2)CC1 [V-16, (Z)-5-((4-(4-(4-((E)-5-oxooct-6-enoyl)piperazin-1-yl)phenyl)quinolin-6-yl)methylene)thiazolidine-2,4-dione]",< 10 nM
15,"C/C=C/C(=O)CCCC(=O)NCC(=O)N1CC=C(c2cc3nc(-c4cccc5[nH]ncc45)nc(N4CCOCC4)c3s2)CC1 [II-a-61, (E)-N-(2-(4-(2-(1H-indazol-4-yl)-4-morpholinothieno[3,2-d]pyrimidin-6-yl)-5,6-dihydropyridin-1(2H)-yl)-2-oxoethyl)-5-oxooct-6-enamide]",< 10 nM
16,"C=CC(=O)N1CCc2ccc(-c3ccnc4ccc(/C=C5\SC(=O)NC5=O)cc34)cc2C1 [V-19, (Z)-5-((4-(2-acryloyl-1,2,3,4-tetrahydroisoquinolin-7-yl)quinolin-6-yl)methylene)thiazolidine-2,4-dione]",10 to 100 nM
17,"CCC(=O)NCc1cccc(-c2cc3nc(-c4cccc(O)c4)nc(N4CCOCC4)c3s2)c1 [II^R-a-64, N-(3-(2-(3-hydroxyphenyl)-4-morpholinothieno[3,2-d]pyrimidin-6-yl)benzyl)propionamide]",100 to 1000 nM
18,"C/C=C/C(=O)CCC(=O)N1CCN(Cc2cc3nc(-c4ccnc5[nH]ccc45)nc(N4CCOCC4)c3s2)CC1 [II-a-114, (E)-1-(4-((4-morpholino-2-(1H-pyrrolo[2,3-b]pyridin-4-yl)thieno[3,2-d]pyrimidin-6-yl)methyl)piperazin-1-yl)hept-5-ene-1,4-dione]",100 to 1000 nM
19,"O=C(/C=C/c1ccccc1)CCC(=O)N1CCC(O)(c2cc3nc(-c4cccc5[nH]ncc45)nc(N4CCOCC4)c3s2)CC1 [II-a-136, (E)-1-(4-(2-(1H-indazol-4-yl)-4-morpholinothieno[3,2-d]pyrimidin-6-yl)-4-hydroxypiperidin-1-yl)-6-phenylhex-5-ene-1,4-dione]",100 to 1000 nM
20,"C=CC(=O)NC1CCN(c2ccc(-c3cc4nc(-c5cccc6[nH]ncc56)nc(N5CCOCC5)c4s3)cc2)CC1 [II-a-110, N-(1-(4-(2-(1H-indazol-4-yl)-4-morpholinothieno[3,2-d]pyrimidin-6-yl)phenyl)piperidin-4-yl)acrylamide]",100 to 1000 nM

# Second part, the molecule after the results:
row,IC50,SMILES
1,> 1000 nM,"C/C=C/C(=O)CCCC(=O)Nc1ccc2c(c1)N(c1nc3c(s1)C(=O)NC(C)(C)C3)CCO2 [VI-24, (E)-N-(4-(6,6-dimethyl-4-oxo-4,5,6,7-tetrahydrothiazolo[5,4-c]pyridin-2-yl)-3,4-dihydro-2H-benzo[b][1,4]oxazin-6-yl)-5-oxooct-6-enamide]"
2,100 to 1000 nM,"CC(C)=CC(=O)CCCCC#Cc1cc(-c2cnc(N)nc2)nc(N2CCOCC2)c1 [XII-6, 10-(2-(2-aminopyrimidin-5-yl)-6-morpholinopyridin-4-yl)-2-methyldec-2-en-9-yn-4-one]"
3,> 1000 nM,"C=CC(=O)Nc1ccc(CCNC(=O)c2cc(-c3cnc(N)cc3C(F)(F)F)nc(N3CCOCC3)c2)cc1 [XII-11, N-(4-acrylamidophenethyl)-6′-amino-6-morpholino-4′-(trifluoromethyl)-2,3′-bipyridine-4-carboxamide]"
4,100 to 1000 nM,"CC(C)=CC(=O)C1(C(=O)N2CCC3(CC2)CN(c2cc(-c4cnc(N)nc4)nc(N4CCOCC4)c2)C3)CC1 [XII-38, 1-(1-(2-(2-(2-aminopyrimidin-5-yl)-6-morpholinopyridin-4-yl)-2,7-diazaspiro[3.5]nonane-7-carbonyl)cyclopropyl)-3-methylbut-2-en-1-one]"
5,> 1000 nM,CC(C)=CC(=O)c1ccc(CCNC(=O)c2cc(-c3cccc4[nH]ncc34)nc(N3CCOCC3)c2)cc1 [XII-12]
6,> 1000 nM,"C=CC(=O)N(C)CC(=O)N1CCC(n2nc(-c3cc4cc(O)ccc4[nH]3)c3c(N)ncnc32)CC1 [XI-8, N-(2-(4-(4-amino-3-(5-hydroxy-1H-indol-2-yl)-1H-pyrazolo[3,4-d]pyrimidin-1-yl)piperidin-1-yl)-2-oxoethyl)-N-methylacrylamide]"
7,100 to 1000 nM,"C=CC(=O)Nc1ccc(CCNC(=O)c2cc(-c3cnc(N)nc3C)nc(N3CCOCC3)c2)cc1 [XII-16, N-(4-acrylamidophenethyl)-2-(2-amino-4-methylpyrimidin-5-yl)-6-morpholinoisonicotinamide]"
8,10 to 100 nM,"COc1c(OCCNC(=O)c2ccc(NC(=O)/C=C/c3ncc[nH]3)cc2)ccc2c1N=C(NC(=O)c1cccnc1)N1CCN=C21 [IX-6, (E)-N-(8-(2-(4-(3-(1H-imidazol-2-yl)acrylamido)benzamido)ethoxy)-7-methoxy-2,3-dihydroimidazo[1,2-c]quinazolin-5-yl)nicotinamide]"
9,10 to 100 nM,"COc1c(OCCNC(=O)CCC(=O)/C=C/c2ccccc2)ccc2c1N=C(NC(=O)c1cccnc1)N1CCN=C21 [IX-3, (E)-N-(7-methoxy-8-(2-(4-oxo-6-phenylhex-5-enamido)ethoxy)-2,3-dihydroimidazo[1,2-c]quinazolin-5-yl)nicotinamide]"
10,100 to 1000 nM,"CC(C)=CC(=O)C1(C(=O)N2CCC3(CC2)CCN(c2cc(-c4cnc(N)nc4)nc(N4CCOCC4)c2)CC3)CC1 [XII-36, 1-(1-(9-(2-(2-aminopyrimidin-5-yl)-6-morpholinopyridin-4-yl)-3,9-diazaspiro[5.5]undecane-3-carbonyl)cyclopropyl)-3-methylbut-2-en-1-one]"
11,10 to 100 nM,"CC(C)=CC(=O)CCCC(=O)N1CC=C(c2cc(-c3cnc(N)nc3)nc(N3CCOCC3)c2)CC1 [XII-3, 1-(4-(2-(2-aminopyrimidin-5-yl)-6-morpholinopyridin-4-yl)-5,6-dihydropyridin-1(2H)-yl)-7-methyloct-6-ene-1,5-dione]"
12,100 to 1000 nM,"CC(C)=CC(=O)CCC(=O)N1CCN(Cc2cc(-c3cnc(N)nc3)nc(N3CCOCC3)c2)CC1 [XII-1, 1-(4-((2-(2-aminopyrimidin-5-yl)-6-morpholinopyridin-4-yl)methyl)piperazin-1-yl)-6-methylhept-5-ene-1,4-dione]"
